ChEMBL document CHEMBL1201862, “PubChem BioAssay data set” (2004)
One block for each molecule: values may come before it. Calls of active or inactive are those of the source.

What was measured:
[1] = target: T1, Probable nicotinate-nucleotide adenylyltransferase (Staphylococcus aureus (strain N315), UniProt P65502); type: functional, Staphylococcus aureus subsp. aureus N315;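 as to IC50 Mean: confirmatory dose-response retesting of NadD inhibitor hits first found in an ultra-high-throughput screen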
[2] = target: T1, Probable nicotinate-nucleotide adenylyltransferase; type: functional, Staphylococcus aureus subsp. aureus N315; details: read-out: IC50_Mean
[3] = target: T2, fMet-Leu-Phe receptor (Homo sapiens, UniProt P21462); assay: FPR ligands, dose response (AID 519); type: functional
T2 sequence (P21462 whole entry): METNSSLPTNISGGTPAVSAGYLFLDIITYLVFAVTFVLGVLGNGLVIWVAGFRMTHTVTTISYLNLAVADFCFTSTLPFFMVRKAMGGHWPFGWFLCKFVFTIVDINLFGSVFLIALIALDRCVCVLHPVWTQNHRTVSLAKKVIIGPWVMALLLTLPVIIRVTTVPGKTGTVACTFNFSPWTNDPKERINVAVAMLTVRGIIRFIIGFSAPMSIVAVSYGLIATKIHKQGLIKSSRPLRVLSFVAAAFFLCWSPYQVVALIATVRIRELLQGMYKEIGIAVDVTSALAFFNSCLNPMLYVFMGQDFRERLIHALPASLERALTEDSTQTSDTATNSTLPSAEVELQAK

[4] = target: T3, Heat shock factor protein 1 (Mus musculus, UniProt P38532); assay: inhibition of MG132-induced HSE-luciferase signal, confirmation, cell-based, NIH3T3, luminescence, dose retest (AID 2382); type: functional;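 also: NIH3T3 fibroblasts with HSF1-driven luciferase reporter stressed by proteasome inhibitor MG132; luminescence from HSF1-driven luciferase expression after 8 hours of MG132 stress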
T3 sequence (P38532 whole entry): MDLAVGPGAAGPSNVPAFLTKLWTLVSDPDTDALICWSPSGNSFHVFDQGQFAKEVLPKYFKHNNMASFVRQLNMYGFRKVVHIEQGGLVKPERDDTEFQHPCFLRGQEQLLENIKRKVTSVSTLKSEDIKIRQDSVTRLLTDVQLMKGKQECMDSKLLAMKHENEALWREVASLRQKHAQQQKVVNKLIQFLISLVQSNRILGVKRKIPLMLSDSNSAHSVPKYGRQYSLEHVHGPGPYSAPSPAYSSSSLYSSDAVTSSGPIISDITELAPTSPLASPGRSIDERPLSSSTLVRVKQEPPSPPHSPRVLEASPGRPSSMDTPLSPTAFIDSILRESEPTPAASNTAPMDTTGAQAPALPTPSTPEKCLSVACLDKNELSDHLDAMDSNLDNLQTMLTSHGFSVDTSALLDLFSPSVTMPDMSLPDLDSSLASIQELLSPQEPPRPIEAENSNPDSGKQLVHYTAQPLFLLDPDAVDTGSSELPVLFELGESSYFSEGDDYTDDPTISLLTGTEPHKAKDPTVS

[5] = tested on: HEK293; assay: inhibitors of LMP1-driven NF-kB reporter, dose response, cell-based, HEK293, luciferase, cherry-pick (AID 588343); type: functional, Homo sapiens; details: Homo sapiens, HEK293
[6] = target: T4, Interleukin-8 (Homo sapiens, UniProt P10145); assay: Dose Response confirmation of uHTS small molecule hits for cystic fibrosis induced NFkb Inhibitors in a TNFa-induced IL8 counterscreen.; type: functional; details: read-out: IC50_Mean
T4 sequence (P10145 whole entry): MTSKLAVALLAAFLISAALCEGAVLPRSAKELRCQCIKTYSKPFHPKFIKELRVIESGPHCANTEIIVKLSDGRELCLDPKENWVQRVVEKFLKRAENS

[7] = target: T4, Interleukin-8; assay: Dose Response confirmation of uHTS small molecule hits for cystic fibrosis induced NFkb Inhibitors in a PAF-induced IL8 counterscreen.; type: functional; details: read-out: IC50_Mean
[8] = target: T5, Corticotropin-releasing factor receptor 2/Corticotropin-releasing factor-binding protein (Homo sapiens, UniProt P24387+Q13324); assay: activators of CRF receptor 2 with binding protein – uHTS hits, confirmation (AID 602473); type: functional; details: read-out: EC50_Mean
T5 sequence (Q13324 whole entry): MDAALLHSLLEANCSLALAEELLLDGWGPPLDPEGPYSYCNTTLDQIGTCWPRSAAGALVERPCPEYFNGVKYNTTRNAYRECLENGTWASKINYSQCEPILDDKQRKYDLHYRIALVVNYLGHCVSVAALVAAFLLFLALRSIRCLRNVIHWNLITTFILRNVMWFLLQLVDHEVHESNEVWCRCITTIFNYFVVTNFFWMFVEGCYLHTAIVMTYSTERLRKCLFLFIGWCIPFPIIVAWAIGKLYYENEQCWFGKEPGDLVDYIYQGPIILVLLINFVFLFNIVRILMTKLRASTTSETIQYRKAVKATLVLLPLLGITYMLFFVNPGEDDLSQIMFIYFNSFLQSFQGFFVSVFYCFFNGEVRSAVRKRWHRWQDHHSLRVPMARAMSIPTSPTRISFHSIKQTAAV
T5 sequence (P24387 whole entry): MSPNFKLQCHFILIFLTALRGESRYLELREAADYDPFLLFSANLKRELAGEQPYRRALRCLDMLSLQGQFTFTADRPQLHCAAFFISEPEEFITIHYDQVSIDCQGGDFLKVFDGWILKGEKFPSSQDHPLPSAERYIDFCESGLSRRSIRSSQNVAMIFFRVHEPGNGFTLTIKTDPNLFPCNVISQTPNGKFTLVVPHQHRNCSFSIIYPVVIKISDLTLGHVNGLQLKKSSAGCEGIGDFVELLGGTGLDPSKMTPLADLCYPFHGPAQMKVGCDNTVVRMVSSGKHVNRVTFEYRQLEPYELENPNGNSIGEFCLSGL

[9] = target: Kallikrein-7 (Homo sapiens, UniProt P49862); assay: Fluorescence Intensity-based biochemical primary high throughput dose response assay to identify activators of kallikrein-7 (K7) zymogen.
[10] = target: Beta-galactosidase (Escherichia coli, UniProt Q8VNN2); assay: Dose response counterscreen for EBI2 assay utilizing the enzyme, b-galactosidase.; type: functional
[11] = HeLa cell cytotoxicity, dose response, cytotoxicity control for MgcRacGAP inhibitor project (AID 624300); type: functional
[12] = target: Cytochrome P450 2D6 (Homo sapiens, UniProt P10635);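 also: CYP2D6 member of a cytochrome P450 panel assay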
Chain of Cytochrome P450 2D6 (P10635 whole entry): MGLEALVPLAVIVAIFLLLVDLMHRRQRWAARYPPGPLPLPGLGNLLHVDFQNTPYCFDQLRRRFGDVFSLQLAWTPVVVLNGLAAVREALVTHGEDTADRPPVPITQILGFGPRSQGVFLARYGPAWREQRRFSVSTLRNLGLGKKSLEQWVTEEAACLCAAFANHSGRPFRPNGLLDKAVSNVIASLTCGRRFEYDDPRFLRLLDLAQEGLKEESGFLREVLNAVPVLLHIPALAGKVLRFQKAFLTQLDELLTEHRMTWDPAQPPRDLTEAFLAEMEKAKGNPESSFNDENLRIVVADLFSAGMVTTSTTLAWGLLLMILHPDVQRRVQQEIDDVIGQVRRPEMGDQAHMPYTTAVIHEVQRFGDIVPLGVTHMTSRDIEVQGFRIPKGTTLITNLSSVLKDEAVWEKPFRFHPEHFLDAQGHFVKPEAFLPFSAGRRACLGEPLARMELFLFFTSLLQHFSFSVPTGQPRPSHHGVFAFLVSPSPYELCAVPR

Chain of Beta-galactosidase (Q8VNN2 whole entry): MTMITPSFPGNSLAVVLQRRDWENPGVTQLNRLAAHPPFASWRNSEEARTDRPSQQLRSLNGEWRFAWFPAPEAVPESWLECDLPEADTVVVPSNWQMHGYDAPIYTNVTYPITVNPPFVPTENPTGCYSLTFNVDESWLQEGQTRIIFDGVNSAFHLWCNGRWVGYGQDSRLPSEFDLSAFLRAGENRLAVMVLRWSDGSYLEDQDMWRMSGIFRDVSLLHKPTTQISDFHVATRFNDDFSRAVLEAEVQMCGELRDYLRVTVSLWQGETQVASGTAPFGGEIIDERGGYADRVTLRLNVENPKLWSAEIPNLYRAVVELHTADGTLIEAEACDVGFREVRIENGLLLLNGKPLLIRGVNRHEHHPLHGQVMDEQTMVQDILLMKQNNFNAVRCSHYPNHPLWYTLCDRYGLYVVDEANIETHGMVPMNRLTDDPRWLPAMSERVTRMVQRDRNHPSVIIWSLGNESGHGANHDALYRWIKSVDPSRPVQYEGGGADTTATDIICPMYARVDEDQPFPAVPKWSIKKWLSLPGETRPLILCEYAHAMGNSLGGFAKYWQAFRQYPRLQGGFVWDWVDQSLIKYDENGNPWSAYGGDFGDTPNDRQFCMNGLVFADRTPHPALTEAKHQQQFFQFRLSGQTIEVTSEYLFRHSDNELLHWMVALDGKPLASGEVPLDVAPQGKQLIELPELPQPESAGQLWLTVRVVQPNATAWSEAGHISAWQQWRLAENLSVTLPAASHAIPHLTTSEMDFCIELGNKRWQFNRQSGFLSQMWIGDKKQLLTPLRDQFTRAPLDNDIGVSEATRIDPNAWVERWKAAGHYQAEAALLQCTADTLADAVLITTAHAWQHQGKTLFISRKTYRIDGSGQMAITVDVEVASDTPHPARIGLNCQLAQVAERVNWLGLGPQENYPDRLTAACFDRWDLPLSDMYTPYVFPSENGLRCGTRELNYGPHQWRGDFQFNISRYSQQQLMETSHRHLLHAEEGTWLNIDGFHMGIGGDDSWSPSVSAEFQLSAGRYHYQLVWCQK
Chain of Kallikrein-7 (P49862 whole entry): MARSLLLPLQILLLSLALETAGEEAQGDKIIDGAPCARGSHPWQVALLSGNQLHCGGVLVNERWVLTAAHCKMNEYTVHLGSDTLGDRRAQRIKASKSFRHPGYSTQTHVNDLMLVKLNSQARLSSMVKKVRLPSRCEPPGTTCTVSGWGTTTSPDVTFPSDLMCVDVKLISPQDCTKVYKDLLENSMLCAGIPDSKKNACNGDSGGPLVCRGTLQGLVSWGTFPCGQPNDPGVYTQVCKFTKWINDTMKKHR

IC50 [1]: 8.29 µM (active)
IC50 [2]: 17.8 µM (active)
Ki [3]: 22.9 µM (inactive)
Structure (SMILES): Cc1cccc(-n2nc3c(c2NC(=O)c2ccco2)CSC3)c1C

Structure (SMILES): CCCCN(c1ccccc1)c1ncnc(N)c1[N+](=O)[O-]
EC50 [4]: 8.33 µM (active)
AC50 [5]: 14.3 µM (active)
IC50 [6]: 39.7 µM (inactive)
IC50 [7]: > 79 µM (inactive)

EC50 [8]: > 53 µM (inactive)
EC50 [9]: > 69.5 µM (inactive)
Structure (SMILES): CCN1CCSc2ccc(C(=O)NCc3ccccc3F)cc21

IC50 [10]: > 80 µM (inactive)
Structure (SMILES): CN=C(S)N1N=C(c2ccc(C)cc2)CC1c1ccc(Cl)cc1 (stereo unspecified)

Structure (SMILES): CC(C)N(c1ccccc1)c1ccc(NC(S)=NCCN(C)C)cc1
CC50 [11]: 100 µM (active)

IC50 [10]: > 80 µM (inactive)
Structure (SMILES): CN=C(S)N1N=C(c2ccc(C)cc2)CC1c1ccc(Br)cc1 (stereo unspecified)

Structure (SMILES): c1cncc(CNc2ncnc3ccc(-c4ccoc4)cc23)c1
AC50 [5]: 5.33 µM (active)
IC50 [6]: > 79 µM (inactive)
IC50 [7]: 6.44 µM (active)
AC50 [12]: 25.1 µM (inconclusive)
